Read-outs that look alike come from different tables or passages of the source.
Columns and labels:
[1] = test system: maximal electroshock-induced seizures; test: Maximal electroshock-induced seizure (MES) test in mice; assay type: in vivo, mouse; settings: for responders at 300 mg/kg / ED50: Mus musculus, ip; for responders at 300 mg/kg: read-out: percent of animals protected against MES-induced seizures; for PI (TD50/ED50): protective index
Experimental: Additionally, all efforts were made to minimize animal suffering and to use only the number of animals necessary to produce reliable scientific data.
In the initial stage of the study, groups of eight mice were supplied with the compounds (administered intraperitoneally) in a dose of 300 mg/kg and then exposed to electrical impulse at fixed intervals (15, 30, 60, 120 min).
Each mouse was used only once.
Fresh drug solutions were prepared on each day of experimentation and administered at 15, 30, 60 and 120 min. before the initiation of maximal electroconvulsions. Electroconvulsions were produced by a current (0.2 s stimulus duration; 500 V, 50 Hz, fixed current intensity of 25 mA) delivered via ear-clip electrodes by a Rodent Shocker generator (constant-current stimulator Type 221, Hugo Sachs Elektronik, Freiburg, Germany). The criterion for the occurrence of seizure activity was the tonic hind limb extension. The animals were administered with a constant dose of 300 mg/kg of each of the examined compounds and were subjected to MES-induced seizures. […] The animals were administered with different doses of the tested compounds so as to obtain a variable percentage of protection against maximal electroconvulsions, allowing the construction of dose-response relationship lines for each examined compound administered i.p. at various pretreatment times, according to Litchfield and Wilcoxon. Each ED50 value represents the dose of the studied compounds that is required to protect 50% of the animals tested against MES-induced seizures.

GABAA receptors = test: Radioligand binding assay, [3H]muscimol, rat cerebral cortex; settings: compound 1 × 10^−6 M, [3H]muscimol, rat cerebral cortex;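 further: low percentages indicate weak binding of the compound to the receptor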
Experimental: Binding experiments were conducted in 96-well microplates in a total volume of 200 μL of appropriate buffer. The reaction mixture included 50 μL solution of test compound, 50 μL of radioligand, and […] the tissue suspension. Rat cerebral cortex was used for each receptor. […] Radioligand binding data were analyzed using iterative curve fitting routines (GraphPAD/Prism, Version 3.0, San Diego, CA, USA). Ki values were calculated from the Cheng and Prusoff equation [36].

[2] = 300 mg/kg i.p., pretreatment time 15 min, mice
[3] = 300 mg/kg i.p., pretreatment time 30 min, mice
[4] = 300 mg/kg i.p., pretreatment time 60 min, mice
[5] = 300 mg/kg i.p., pretreatment time 120 min, mice
[6] = 0.25 h, 300 mg/kg i.p., pretreatment time 15 min, mice
[7] = 0.5 h, 300 mg/kg i.p., pretreatment time 30 min, mice
[8] = 1 h, 300 mg/kg i.p., pretreatment time 60 min, mice
[9] = 2 h, 300 mg/kg i.p., pretreatment time 120 min, mice

SMILES	melting point [°C]	p/t, number of animals protected against MES-induced seizures / number tested [1, 2]	p/t, number of animals protected against MES-induced seizures / number tested [1, 3]	p/t, number of animals protected against MES-induced seizures / number tested [1, 4]	p/t, number of animals protected against MES-induced seizures / number tested [1, 5]	responders at 300 mg/kg [1, 6] [%]	responders at 300 mg/kg [1, 7] [%]	responders at 300 mg/kg [1, 8] [%]	responders at 300 mg/kg [1, 9] [%]	other results
CC(=O)c1ccc(-n2c(-c3cccc(Cl)c3)n[nH]c2=S)cc1 [Compound 11a, 4-(4-Acetylphenyl)-5-(3-chlorophenyl)-2,4-dihydro-3H-1,2,4-triazole-3-thione]	218 to 220	1/8	1/8	1/8	0/8	12.5	12.5	12.5	0	–
Fc1ccc(-n2c(-c3ccc(Cl)cc3)n[nH]c2=S)c(F)c1 [Compound 13a, 5-(4-Chlorophenyl)-4-(2,4-difluorophenyl)-2,4-dihydro-3H-1,2,4-triazole-3-thione]	196 to 198	8/8	8/8	8/8	8/8	100	100	100	100	ED50 ([1]; pretreatment time 15 min, mice, read-out: ED50 ± S.E. (MES test)): 104 ± 15.8 mg/kg; ED50 ([1]; pretreatment time 30 min, mice, read-out: ED50 ± S.E. (MES test)): 100 ± 30.1 mg/kg; ED50 ([1]; pretreatment time 60 min, mice, read-out: ED50 ± S.E. (MES test)): 109 ± 11.9 mg/kg; ED50 ([1]; pretreatment time 120 min, mice, read-out: ED50 ± S.E. (MES test)): 80 ± 10.9 mg/kg; ED50 ([1]; pretreatment times 15, 30, 60, 120 min, read-out: ED50 (MES), range over pretreatment times): 80 to 109 mg/kg; time to peak of the anticonvulsant action ([1]; after i.p. administration, MES, mice): 120 min; PI (TD50/ED50) ([1]; chimney TD50 / MES ED50, pretreatment time 15 min): 1.9; PI (TD50/ED50) ([1]; chimney TD50 / MES ED50, pretreatment time 30 min): 1.9; PI (TD50/ED50) ([1]; chimney TD50 / MES ED50, pretreatment time 60 min): 1.6; PI (TD50/ED50) ([1]; chimney TD50 / MES ED50, pretreatment time 120 min): 2.7; onset of action ([1]; significant protection as early as 15 min after parenteral administration, MES, mice): quick onset of action
S=c1[nH]nc(-c2ccc(Cl)cc2)n1-c1ccc(Cl)cc1Cl [Compound 14a, 5-(4-Chlorophenyl)-4-(2,4-dichlorophenyl)-2,4-dihydro-3H-1,2,4-triazole-3-thione]	238 to 240	–	–	–	–	–	–	–	–	acute adverse effects at the screening dose ([1]; 300 mg/kg i.p., mice, protective effect in MES could not be established): acute adverse effects
CCN(CC)c1ccc(-n2c(-c3ccc(Cl)cc3)n[nH]c2=S)cc1 [Compound 18a, 5-(4-Chlorophenyl)-4-[4-(diethylamino)phenyl]-2,4-dihydro-3H-1,2,4-triazole-3-thione]	264 to 266	0/8	0/8	1/8	0/8	0	0	12.5	0	–
S=c1n(CN2CCOCC2)nc(-c2ccc(Cl)cc2)n1-c1ccccc1Br [Compound 25a, 4-(2-Bromophenyl)-5-(4-chlorophenyl)-2-(morpholin-4-ylmethyl)-2,4-dihydro-3H-1,2,4-triazole-3-thione]	180 to 181	0/8	0/8	0/8	0/8	0	0	0	0	–
S=c1n(CN2CCN(c3ccccc3)CC2)nc(-c2ccc(Cl)cc2)n1-c1ccccc1Br [Compound 26a, 4-(2-Bromophenyl)-5-(4-chlorophenyl)-2-[(4-phenylpiperazin-1-yl)methyl]-2,4-dihydro-3H-1,2,4-triazole-3-thione]	140 to 142	0/8	0/8	0/8	0/8	0	0	0	0	–
Fc1ccc(N2CCN(Cn3nc(-c4ccc(Cl)cc4)n(-c4ccccc4Br)c3=S)CC2)cc1 [Compound 27a, 4-(2-Bromophenyl)-5-(4-chlorophenyl)-2-{[4-(4-fluorophenyl)piperazin-1-yl]methyl}-2,4-dihydro-3H-1,2,4-triazole-3-thione]	168 to 170	0/8	0/8	0/8	0/8	0	0	0	0	–
S=c1n(CN2CCN(c3ccccc3)CC2)nc(-c2ccc(Cl)cc2)n1-c1ccc(Br)cc1 [Compound 29a, 4-(4-Bromophenyl)-5-(4-chlorophenyl)-2-[(4-phenylpiperazin-1-yl)methyl]-2,4-dihydro-3H-1,2,4-triazole-3-thione]	178 to 180	0/8	0/8	0/8	0/8	0	0	0	0	–
Fc1ccc(N2CCN(Cn3nc(-c4ccc(Cl)cc4)n(-c4ccc(Br)cc4)c3=S)CC2)cc1 [Compound 30a, 4-(4-Bromophenyl)-5-(4-chlorophenyl)-2-{[4-(4-fluorophenyl)piperazin-1-yl]methyl}-2,4-dihydro-3H-1,2,4-triazole-3-thione]	156 to 158	0/8	0/8	0/8	0/8	0	0	0	0	–
NCCCC(=O)O [GABA, γ-aminobutyric acid]	–	–	–	–	–	–	–	–	–	Percent of Specific Binding, GABAA (GABAA receptors): 82%
